Here are results for 11 compounds from patent publication US20160052918A1, “SMALL COMPOUNDS TARGETING TACC3” (JAPANESE FOUNDATION FOR CANCER RESEARCH, priority 2012, published 2016).

In brackets after ≈: the same amount, converted by molar mass. Where only a bound is given, the exact number is not on record here.

One series deals with cultured cells. The series is described as follows: Visual screening (microscopic observation) for abnormal cell division in cultured cells. The class given is cell-based. The conditions noted are these: added into culture medium. From the text: As a result of screening 6800 compounds, 70 compounds were bound with the TACC3-DsRed fusion protein. These 70 compounds recognized to bind to the TACC3-DsRed fusion protein were each added into a culture medium of cultured cells. Compounds inducing abnormal cell division were selected by microscopic observation. As a result, 4 compounds were screened for as compounds inhibiting cell division (FIG. 1, lower diagram, visual screening).

Series [1] has as its target T1, TACC3-DsRed fusion protein (Homo sapiens, UniProt Q9Y6A5).
T1 construct: expressed in transfected cells; host or cells: HEK293T
The series is described as follows: Chemical array screening for compounds binding to TACC3-DsRed fusion protein. The conditions noted are these: compound immobilized on chemical array, cell lysate. As to the method:
The present inventors screened for compounds targeting at TACC3 using a chemical array (FIG. 1).
According to the protocol of Miyazaki et al. (Non Patent Literature 13), a cell lysate containing a TACC3-DsRed fusion protein was contacted with the chemical array to screen for a compound binding to the TACC3-DsRed fusion protein (FIG. 1, upper diagram).
The cell lysate containing a TACC3-DsRed fusion protein is prepared as follows.
Human TACC3 cDNA was cloned into pDsRed-Express-N1 (Registered Trade Mark) (manufactured by Clontech Laboratories, Inc.), which was then transferred to HEK293T cells. Forty eight hours after transfection, the cells were collected. The obtained cells were sonicated in PBS and centrifuged for removal of insoluble substances to obtain a cell lysate. The cell lysate was confirmed the presence of the TACC3-DsRed fusion protein using anti-TACC3 and anti-DsRed antibodies.
The cell lysate containing a TACC3-DsRed fusion protein was contacted with the chemical array. After washing, the TACC3-DsRed fusion protein bound with a compound immobilized on the chemical array was detected. The detection of the TACC3-DsRed fusion protein with a compound was carried out by the excitation of a chemical array slide with a wavelength of 532 nm and the detection of fluorescence at 575 nm

Series [2] has as its system SKOV-3 cells expressing EGFP-α-tubulin. The series is described as follows: Mitotic arrest of synchronized EGFP-α-tubulin-expressing SKOV-3 cells, time-lapse single-cell analysis. The class given is cell-based. The conditions noted are these: for EC50: Homo sapiens, SK-OV-3, 72 h, mitotic arrest, EC50=50% arrest rate, double thymidine block, time-lapse 3 days, at least 50 cells, read-out: SKOV3 EC50; for inhibitory effects on cell growth: summary of Table 2 (SKOV-3 mitotic arrest and lymphoma cell death). The method, then:
The EGFP-α-tubulin-expressing cells used in the assay will be described. In order to observe mitosis under a fluorescence microscope, cells expressing EGFP-α-tubulin (fusion protein of a fluorescent protein, EGFP, and α-tubulin) were prepared. A system observable under a fluorescence microscope without cell fixation was prepared.
Ovary cancer cells SKOV-3 were cultured in an RPMI1640 medium supplemented with 5% fetal bovine serum. Stable cells expressing EGFP-α-tubulin were transduced by lentiviral transduction using pLenti4/V5-DEST vectors (Registered Trade Mark) (manufactured by Invitrogen Corp.) and selected by the FACS sorting of infected cells using Zeocin (Registered Trade Mark) and subsequent FACSAria (Registered Trade Mark) (Becton, Dickinson and Company).
The compounds NPD2448, NPD2568, NPD3574, NPD4089, and C7—O-propylated NPD3574 were each added at varying concentrations to the culture medium of SKOV-3 cells expressing EGFP-α-tubulin and analyzed for their effect on cell division.
The SKOV-3 cells expressing EGFP-α-tubulin were synchronized by thymidine block to analyze the effect on cell division of each compound. As shown in the upper part of FIG. 2, each compound was added to the culture medium after the 1st thymidine block. After synchronization by the second thymidine block, images were taken every 2 minutes for 3 days using Leica AF6000 and ×20/0.5 Plan Fluotar objective lens in a phenol red-free RPMI1640 medium supplemented with 5% fetal bovine serum. These time-lapse images were analyzed using ImageJ 1.42a software, and the time of mitotic arrest was determined by visual judgment. The duration of mitosis was manually determined from the image sequences of at least 50 cells.
The mitotic arrest (EC50=50% arrest rate) was tested by the microscopic analysis of individual single cells.
EGFP-α-tubulin-expressing SKOV-3 cells synchronized by double thymidine block in the same way as in Example 2 were treated with each synthesized compound and subjected to time-lapse photography for 3 days. At least 50 cells were observed. The time of arrest of each cell was calculated, and EC50 was determined therefrom.
EGFP-α-tubulin-expressing SKOV-3 cells supplemented with each of SPL-A and SPL-B at varying concentrations were synchronized by double thymidine block in the same way as in Example 2. Analysis based on single cells was conducted by time-lapse photography. The duration of mitosis was measured from the image sequences of at least 50 cells.

In a further series the test system is mouse lymphoma cell line. Kind of series: Cell death of lymphoma (survival rate, WST-1). The class given is cell-based. The conditions noted are these: 72 h, IC50=50% survival rate, three days. As to the method: The synthesized compounds were analyzed for their activity against cell death induction using a mouse lymphoma cell line (see Non Patent Literature 12), which was a cell line derived from thymic lymphoma developed in p53KO mouse.
The number of the lymphoma cells was adjusted to 1.2×10^5 cells/ml. The cells were inoculated at a concentration of 50 μl/well to a 96-well culture dish. A medium containing each RT compound as the novel compound of the present invention at twice the concentration of 50 μl was further added thereto (final concentration: 0.021 to 13.3 μg/ml). Three days after cultivation, the survival rate was calculated using WST-1 reagent (manufactured by F. Hoffmann-La Roche, Ltd.).

Series [3] in a line: Solubility remarks of Table 2. The class given is physicochemical. The conditions noted are these: Table 2 remark.
Series [4] concerns p53-knockout cells derived from human colon cancer cells HCT-116. The series is described as follows: Cell growth by WST assay, combined use of SPL-B and paclitaxel. The class given is cell-based. The conditions noted are these: HCT-116, 72 h, three days. The method, then:
p53-knockout cells derived from human colon cancer cells HCT-116 were cultured after combined administration of paclitaxel and SPL-B. Three days after cultivation, the survival rate of the cells was measured by WST assay.

Consider `CCCN(CCC)Cc1c(O)ccc2c(-c3cc4ccccc4oc3=O)cc(=O)oc12` [NPD2448], for which the abnormal cell division result with cultured cells is on record as “induced abnormal cell division”. In addition, the “binding to the TACC3-DsRed fusion protein” value (shortened to “binding”) in series [1] is listed as “bound to the TACC3-DsRed fusion protein”.

In the case of `O=c1cc(-c2cc3cc(Cl)ccc3oc2=O)c2ccc(O)c(CN3CCCCCC3)c2o1` [NPD2568], in the series with cultured cells, the abnormal cell division result is reported as “induced abnormal cell division”. Moreover, the “binding” value in series [1] is “bound to the TACC3-DsRed fusion protein”.

Take `COCCN(CCOC)Cc1c(O)ccc2c(-c3cc4ccccc4oc3=O)cc(=O)oc12` [NPD3574]: in the series on cultured cells, the abnormal cell division entry is “induced abnormal cell division”. In series [2], the EC50 amounted to 0.85 mg/L (≈ 1.88 µM) and the “inhibitory effects on cell growth” value was “remarkable inhibitory effects on cell growth”. Also, the “binding” value in series [1] is on record as “bound to the TACC3-DsRed fusion protein”. In the series with mouse lymphoma cell line, this compound came in with an IC50 of 1.26 mg/L (≈ 2.79 µM).

Turning to `CCCCN(C)Cc1c(O)ccc2c(-c3cc4cc(Br)ccc4oc3=O)cc(=O)oc12` [NPD4089], the abnormal cell division entry in the series with cultured cells is “induced abnormal cell division”. In addition, the “binding” value in series [1] was “bound to the TACC3-DsRed fusion protein”.

As to `C#CCOc1ccc2c(-c3cc4ccccc4oc3=O)cc(=O)oc2c1CN(CCOC)CCOC` [RT-017], the EC50 in series [2] was more than 66.7 mg/L. Besides, the “Remarks: solubility” value in series [3] is “Insoluble”.

Regarding `O=c1cc(-c2cc3cc(Cl)ccc3oc2=O)c2ccc(O)cc2o1` [RT-018], the EC50 in series [2] was more than 66.7 mg/L. Further, in series [3], the “Remarks: solubility” value is recorded as “Poorly soluble in DMSO”.

As for `C=CCOc1ccc2c(-c3cc4ccccc4oc3=O)cc(=O)oc2c1CN(CCOC)CCOC` [RT-021], the EC50 in series [2] is more than 66.7 mg/L. The “Remarks: solubility” value in series [3] is on record as “Insoluble”.

As for `COCCN(CCOC)Cc1c(OCC=C(C)C)ccc2c(-c3cc4ccccc4oc3=O)cc(=O)oc12` [RT-022], the “Remarks: start of mitosis” value in series [2] (At 66.7 μg/ml) is listed as “μg/ml, mitosis did not”. Moreover, in series [2], the EC50 is more than 66.7 mg/L. Besides, in series [3], the “Remarks: solubility” value is “Insoluble. At 66.7”.

As for `COCCN(CCOC)Cc1c(O)ccc2c(-c3cc4cc(Br)ccc4oc3=O)cc(=O)oc12` [RT-028], in series [2], the EC50 was determined as 6.56 mg/L (≈ 12.4 µM) and the “inhibitory effects on cell growth” value was “remarkable inhibitory effects on cell growth”. In addition, it took 3.28 mg/L (≈ 6.18 µM) to reach half-maximal inhibition with mouse lymphoma cell line (IC50).

Take `COCCN(CCOC)Cc1c(O)ccc2c(-c3cc4cc(F)ccc4oc3=O)cc(=O)oc12` [RT-029]: in series [2], the EC50 is 0.17 mg/L (≈ 0.362 µM) and the “inhibitory effects on cell growth” value is on record as “remarkable inhibitory effects on cell growth”. The compound also yielded a half-inhibitory concentration (IC50) in the series with mouse lymphoma cell line of 0.21 mg/L (≈ 0.447 µM).

Regarding `CC(=O)O[C@H]1C(=O)[C@@]2(C)[C@H]([C@H](OC(=O)c3ccccc3)[C@]3(O)C[C@H](OC(=O)[C@H](O)[C@@H](NC(=O)c4ccccc4)c4ccccc4)C(C)=C1C3(C)C)[C@]1(OC(C)=O)CO[C@@H]1C[C@@H]2O` [paclitaxel], the results for the IC50 in series [4] (adding SPL-B at 150 μM), in series [4] (adding SPL-B at 300 μM) and in series [4] (in the absence of SPL-B) were 7.7 nM, 7.54 nM and 8.34 nM, respectively.

As a reminder, the EC50 is the concentration giving half of the maximal effect. For orientation: IC50 means the midpoint of a concentration-inhibition curve.
